Laboratory results taken from patent US11965039B2, “Compstatin analogues and their medical uses” (priority 2018, dated 2024).
Positions of bridges follow the written chain, without caps; N, C: chain ends. Non-standard residues stand in square brackets, D forms with d. Residues, ends and D or L forms follow the SMILES beside them. Sar = CNCC(=O)O

Experiments:
[1] = tested on: classical complement pathway; test: In vitro haemolysis assay (inhibition of classical complement pathway); type: cell-based, human; settings: human serum, sensitized sheep red blood cells; Table 3, given as upper bounds; read-out: IC50, inhibition of hemolysis
How it was run: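 Compound dilutions preincubated 15 min at room temperature with diluted human serum (titrated per batch for 70-90% maximal haemolysis), then antibody-sensitized sheep RBC (10^7/well) added for 30 min at 37 °C in Tris/casein buffer, pH 7.4. Stopped with EDTA; haemolysis read at 405 nm; IC50 by 4PL fit.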

[2] = Solubility test at 10 mg/mL (visual inspection and light scattering); type: physicochemical; settings: for Solubility, Condition 1: Acetate pH 4; for Solubility, Condition 2: Acetate pH 5; for Solubility, Condition 3: Phosphate pH 6; for Solubility, Condition 4: Phosphate pH 7; for Solubility, Condition 5: Phosphate pH 7.5

SMILES | IC50 [1] [µM] | Solubility, Condition 1 [2] | Solubility, Condition 2 [2] | Solubility, Condition 3 [2] | Solubility, Condition 4 [2] | Solubility, Condition 5 [2]
CC[C@H](C)[C@@H]1NC(=O)[C@@H](NC(=O)[C@@H](NC(=O)[C@H](CCC(=O)O)NC(=O)[C@H](CO)NC(C)=O)[C@@H](C)CC)CSSC[C@@H](C(=O)N[C@H](C(=O)N[C@@H](CCC(=O)O)C(=O)N[C@@H](C)C(N)=O)[C@@H](C)O)NC(=O)[C@H](CCCNC(=N)N)NC(=O)[C@H](Cc2c[nH]cn2)NC(=O)[C@H](CCC(=O)O)NC(=O)CNC(=O)[C@H](Cc2c[nH]c3ccccc23)NC(=O)[C@H](CC(=O)O)NC(=O)[C@H](CCC(N)=O)NC(=O)[C@H](Cc2c[nH]c3ccccc23)NC1=O [Compound 32] (Ac-SEICIWQDWGEHRCTEA-NH2; disulfide 4-14) | < 0.1 | − (“−” denotes lack of solubility at the given condition, as UV absorbance at 340 nm exceeds 0.1 AU and/or it is visibly turbid or contains particles) | − (“−” denotes lack of solubility at the given condition, as UV absorbance at 340 nm exceeds 0.1 AU and/or it is visibly turbid or contains particles) | − (“−” denotes lack of solubility at the given condition, as UV absorbance at 340 nm exceeds 0.1 AU and/or it is visibly turbid or contains particles) | + (“+” denotes solubility at the given condition, as determined by UV absorbance being less than 0.1 AU at 340 nm and the sample being clear when manually inspected) | + (“+” denotes solubility at the given condition, as determined by UV absorbance being less than 0.1 AU at 340 nm and the sample being clear when manually inspected)
CC[C@H](C)[C@@H]1NC(=O)[C@@H](NC(=O)[C@@H](NC(=O)[C@H](CCC(=O)O)NC(C)=O)[C@@H](C)CC)CSSC[C@@H](C(=O)N[C@H](C(=O)N[C@@H](CCC(=O)O)C(N)=O)[C@@H](C)O)NC(=O)[C@H](CCCNC(=N)N)NC(=O)[C@H](Cc2c[nH]cn2)NC(=O)[C@H](CCC(=O)O)NC(=O)CNC(=O)[C@H](Cc2c[nH]c3ccccc23)NC(=O)[C@H](CC(=O)O)NC(=O)[C@H](CCC(N)=O)NC(=O)[C@H](Cc2c[nH]c3ccccc23)NC1=O [Compound 33] (Ac-EICIWQDWGEHRCTE-NH2; disulfide 3-13) | < 0.1 | − (“−” denotes lack of solubility at the given condition, as UV absorbance at 340 nm exceeds 0.1 AU and/or it is visibly turbid or contains particles) | − (“−” denotes lack of solubility at the given condition, as UV absorbance at 340 nm exceeds 0.1 AU and/or it is visibly turbid or contains particles) | + (“+” denotes solubility at the given condition, as determined by UV absorbance being less than 0.1 AU at 340 nm and the sample being clear when manually inspected) | + (“+” denotes solubility at the given condition, as determined by UV absorbance being less than 0.1 AU at 340 nm and the sample being clear when manually inspected) | + (“+” denotes solubility at the given condition, as determined by UV absorbance being less than 0.1 AU at 340 nm and the sample being clear when manually inspected)
CC[C@H](C)[C@@H]1NC(=O)[C@@H](NC(=O)[C@@H](NC(=O)[C@H](CCC(=O)O)NC(=O)[C@H](CO)NC(=O)[C@H](CCC(=O)O)NC(C)=O)[C@@H](C)CC)CSSC[C@@H](C(=O)N[C@@H](CCC(=O)O)C(=O)NCC(=O)N[C@@H](CCC(=O)O)C(N)=O)NC(=O)[C@H](CCCNC(=N)N)NC(=O)[C@H](Cc2c[nH]cn2)NC(=O)[C@H](CCC(=O)O)NC(=O)CNC(=O)[C@H](Cc2c[nH]c3ccccc23)NC(=O)[C@H](CC(=O)O)NC(=O)[C@H](CCC(N)=O)NC(=O)[C@H](Cc2c[nH]c3ccccc23)NC1=O [Compound 36] (Ac-ESEICIWQDWGEHRCEGE-NH2; disulfide 5-15) | < 0.25 | − (“−” denotes lack of solubility at the given condition, as UV absorbance at 340 nm exceeds 0.1 AU and/or it is visibly turbid or contains particles) | − (“−” denotes lack of solubility at the given condition, as UV absorbance at 340 nm exceeds 0.1 AU and/or it is visibly turbid or contains particles) | − (“−” denotes lack of solubility at the given condition, as UV absorbance at 340 nm exceeds 0.1 AU and/or it is visibly turbid or contains particles) | + (“+” denotes solubility at the given condition, as determined by UV absorbance being less than 0.1 AU at 340 nm and the sample being clear when manually inspected) | + (“+” denotes solubility at the given condition, as determined by UV absorbance being less than 0.1 AU at 340 nm and the sample being clear when manually inspected)
CC[C@H](C)[C@H](NC(=O)[C@H](C)NC(=O)[C@H](CO)NC(=O)CNC(C)=O)C(=O)N[C@H]1CSSC[C@@H](C(=O)N(C)CC(=O)N[C@@H](CCC(=O)O)C(N)=O)NC(=O)[C@H](CCCNC(=N)N)NC(=O)[C@H](Cc2c[nH]cn2)NC(=O)[C@H](CCC(=O)O)NC(=O)CNC(=O)[C@H](Cc2c[nH]c3ccccc23)NC(=O)[C@H](CC(=O)O)NC(=O)[C@H](CCC(N)=O)NC(=O)[C@H](Cc2c[nH]c3ccccc23)NC(=O)[C@H]([C@@H](C)CC)NC1=O [Compound 40] (Ac-GSAICIWQDWGEHRC[Sar]E-NH2; disulfide 5-15) | < 0.25 | − (“−” denotes lack of solubility at the given condition, as UV absorbance at 340 nm exceeds 0.1 AU and/or it is visibly turbid or contains particles) | − (“−” denotes lack of solubility at the given condition, as UV absorbance at 340 nm exceeds 0.1 AU and/or it is visibly turbid or contains particles) | + (“+” denotes solubility at the given condition, as determined by UV absorbance being less than 0.1 AU at 340 nm and the sample being clear when manually inspected) | + (“+” denotes solubility at the given condition, as determined by UV absorbance being less than 0.1 AU at 340 nm and the sample being clear when manually inspected) | + (“+” denotes solubility at the given condition, as determined by UV absorbance being less than 0.1 AU at 340 nm and the sample being clear when manually inspected)
CC[C@H](C)[C@H](NC(=O)[C@H](C)NC(=O)[C@H](CO)NC(C)=O)C(=O)N[C@H]1CSSC[C@@H](C(=O)N(C)CC(=O)N[C@@H](CCC(=O)O)C(N)=O)NC(=O)[C@H](CCCNC(=N)N)NC(=O)[C@H](Cc2c[nH]cn2)NC(=O)[C@H](CCC(=O)O)NC(=O)CNC(=O)[C@H](Cc2c[nH]c3ccccc23)NC(=O)[C@H](CC(=O)O)NC(=O)[C@H](CCC(N)=O)NC(=O)[C@H](Cc2c[nH]c3ccccc23)NC(=O)[C@H]([C@@H](C)CC)NC1=O [Compound 41] (Ac-SAICIWQDWGEHRC[Sar]E-NH2; disulfide 4-14) | < 0.25 | − (“−” denotes lack of solubility at the given condition, as UV absorbance at 340 nm exceeds 0.1 AU and/or it is visibly turbid or contains particles) | − (“−” denotes lack of solubility at the given condition, as UV absorbance at 340 nm exceeds 0.1 AU and/or it is visibly turbid or contains particles) | + (“+” denotes solubility at the given condition, as determined by UV absorbance being less than 0.1 AU at 340 nm and the sample being clear when manually inspected) | + (“+” denotes solubility at the given condition, as determined by UV absorbance being less than 0.1 AU at 340 nm and the sample being clear when manually inspected) | + (“+” denotes solubility at the given condition, as determined by UV absorbance being less than 0.1 AU at 340 nm and the sample being clear when manually inspected)
CC[C@H](C)[C@H](NC(=O)[C@H](C)NC(=O)[C@H](CO)NC(=O)CNC(=O)[C@H](CCC(=O)O)NC(C)=O)C(=O)N[C@H]1CSSC[C@@H](C(=O)N(C)CC(=O)N[C@@H](CCC(=O)O)C(=O)NCC(=O)N[C@@H](CCC(=O)O)C(N)=O)NC(=O)[C@H](CCCNC(=N)N)NC(=O)[C@H](Cc2c[nH]cn2)NC(=O)[C@H](CCC(=O)O)NC(=O)CNC(=O)[C@H](Cc2c[nH]c3ccccc23)NC(=O)[C@H](CC(=O)O)NC(=O)[C@H](CCC(N)=O)NC(=O)[C@H](Cc2c[nH]c3ccccc23)NC(=O)[C@H]([C@@H](C)CC)NC1=O [Compound 44] (Ac-EGSAICIWQDWGEHRC[Sar]EGE-NH2; disulfide 6-16) | < 0.25 | − (“−” denotes lack of solubility at the given condition, as UV absorbance at 340 nm exceeds 0.1 AU and/or it is visibly turbid or contains particles) | − (“−” denotes lack of solubility at the given condition, as UV absorbance at 340 nm exceeds 0.1 AU and/or it is visibly turbid or contains particles) | + (“+” denotes solubility at the given condition, as determined by UV absorbance being less than 0.1 AU at 340 nm and the sample being clear when manually inspected) | + (“+” denotes solubility at the given condition, as determined by UV absorbance being less than 0.1 AU at 340 nm and the sample being clear when manually inspected) | + (“+” denotes solubility at the given condition, as determined by UV absorbance being less than 0.1 AU at 340 nm and the sample being clear when manually inspected)
